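A five-concentration, 48-hour dose response in 96-well plates underlies each endpoint, interpolated linearly between surrounding concentrations. Abbreviation: GI50, concentration required for 50% inhibition of growth.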 The source made the active and inactive calls. No stated cut-off is given here; in the data, active = GI50 up to about 1.1 µM and inactive = higher.
Legend:
Assay in all cases: NCI anticancer screen, dose series, 48 h
CAKI-1 = test system: CAKI-1
HOP-62 = test system: HOP-62
XF498 = test system: XF498
Malme-3M = test system: Malme-3M
HCC 2998 = test system: HCC 2998
KM-20L2 = test system: KM-20L2
M19-MEL = test system: M19-MEL
EKVX = test system: EKVX
BT-549 = test system: BT-549
MCF7 = test system: MCF7
SK-MEL-28 = test system: SK-MEL-28
HT-29 = test system: HT-29
SN12C = test system: SN12C
RXF 393 = test system: RXF 393
HL-60 = test system: HL-60
SNB-19 = test system: SNB-19
TK-10 = test system: TK-10
NCI-H460 = test system: NCI-H460
IGROV-1 = test system: IGROV-1
OVCAR-5 = test system: OVCAR-5
UACC-62 = test system: UACC-62
RPMI-8226 = test system: RPMI-8226
A498 = test system: A498
NCI-H522 = test system: NCI-H522
HOP-92 = test system: HOP-92
SK-OV-3 = test system: SK-OV-3
SNB-75 = test system: SNB-75
MDA-MB-231 = test system: MDA-MB-231
MOLT-4 = test system: MOLT-4
K562 = test system: K562
DMS-273 = test system: DMS-273
SF-539 = test system: SF-539
T47D = test system: T47D
LXFL 529 = test system: LXFL 529
M14 = test system: M14
MDA-N = test system: MDA-N
NCI-H226 = test system: NCI-H226
CCRF-CEM = test system: CCRF-CEM
MDA-MB-435 = test system: MDA-MB-435
COLO 205 = test system: COLO 205
OVCAR-4 = test system: OVCAR-4
DLD-1 = test system: DLD-1
OVCAR-8 = test system: OVCAR-8
DMS-114 = test system: DMS-114
SK-MEL-5 = test system: SK-MEL-5
SK-MEL-2 = test system: SK-MEL-2
NCI/ADR-RES = test system: NCI/ADR-RES
HOP-18 = test system: HOP-18
U-251 = test system: U-251
UO-31 = test system: UO-31
UACC-257 = test system: UACC-257
NCI-H23 = test system: NCI-H23
HCT-15 = test system: HCT-15
ACHN = test system: ACHN
A549 = test system: A549
OVCAR-3 = test system: OVCAR-3
KM12 = test system: KM12
DU-145 = test system: DU-145
HCT-116 = test system: HCT-116
SF-268 = test system: SF-268
SR = test system: SR
786-0 = test system: 786-0
SW-620 = test system: SW-620
SF-295 = test system: SF-295
PC-3 = test system: PC-3
LOX IMVI = test system: LOX IMVI
SNB-78 = test system: SNB-78

For `C=CC(=O)N1C/C(=C\c2ccccc2)C(=O)/C(=C/c2ccccc2)C1`, the GI50 (CAKI-1) was 2.83 µM (inactive), the GI50 (HOP-62) was 2.33 µM (inactive) and the GI50 (XF498) was 1.7 µM (inactive). The GI50 (Malme-3M) was 2.15 µM (inactive), the GI50 (HCC 2998) was 1.95 µM (inactive) and the GI50 (KM-20L2) was 1.66 µM (inactive). The GI50 (M19-MEL) was 0.979 µM (active), the GI50 (EKVX) was 3.47 µM (inactive) and the GI50 (BT-549) was 1.71 µM (inactive). The GI50 (MCF7) was 0.5 µM (active), the GI50 (SK-MEL-28) was 1.82 µM (inactive) and the GI50 (HT-29) was 0.467 µM (active). The GI50 (SN12C) was 1.67 µM (inactive), the GI50 (RXF 393) was 2.15 µM (inactive) and the GI50 (HL-60) was 0.71 µM (active). The GI50 (SNB-19) was 2.54 µM (inactive), the GI50 (TK-10) was 2.88 µM (inactive) and the GI50 (NCI-H460) was 1.89 µM (inactive). The GI50 (IGROV-1) was 1.97 µM (inactive), the GI50 (OVCAR-5) was 2.49 µM (inactive) and the GI50 (UACC-62) was 1.19 µM (inactive). For the same compound, the GI50 (RPMI-8226) was 0.0462 µM (active), the GI50 (A498) was 2 µM (inactive) and the GI50 (NCI-H522) was 1.24 µM (inactive). For the same compound, the GI50 (HOP-92) was 3.62 µM (inactive), the GI50 (SK-OV-3) was 2.58 µM (inactive) and the GI50 (SNB-75) was 3.24 µM (inactive). The GI50 (MDA-MB-231) was 2 µM (inactive), the GI50 (MOLT-4) was 0.458 µM (active) and the GI50 (K562) was 0.265 µM (active). The GI50 (DMS-273) was 0.668 µM (active), the GI50 (SF-539) was 1.58 µM (inactive) and the GI50 (T47D) was 3.75 µM (inactive). For the same compound, the GI50 (LXFL 529) was 1.33 µM (inactive), the GI50 (M14) was 1.71 µM (inactive) and the GI50 (MDA-N) was 0.318 µM (active). For the same compound, the GI50 (NCI-H226) was 3.85 µM (inactive), the GI50 (CCRF-CEM) was 0.351 µM (active) and the GI50 (MDA-MB-435) was 0.53 µM (active). For the same compound, the GI50 (COLO 205) was 1.83 µM (inactive), the GI50 (OVCAR-4) was 2.16 µM (inactive) and the GI50 (DLD-1) was 0.458 µM (active). The GI50 (OVCAR-8) was 1.3 µM (inactive), the GI50 (DMS-114) was 1.01 µM (active) and the GI50 (SK-MEL-5) was 1.61 µM (inactive). The GI50 (SK-MEL-2) was 2.1 µM (inactive), the GI50 (NCI/ADR-RES) was 1.93 µM (inactive) and the GI50 (HOP-18) was 3.24 µM (inactive). For the same compound, the GI50 (U-251) was 0.877 µM (active), the GI50 (UO-31) was 1.77 µM (inactive) and the GI50 (UACC-257) was 1.92 µM (inactive). The GI50 (NCI-H23) was 2.14 µM (inactive), the GI50 (HCT-15) was 1.18 µM and the GI50 (ACHN) was 1.83 µM (inactive). The GI50 (A549) was 2.92 µM (inactive), the GI50 (OVCAR-3) was 1.48 µM (inactive) and the GI50 (KM12) was 0.989 µM (active). For the same compound, the GI50 (DU-145) was 5.13 µM (inactive), the GI50 (HCT-116) was 0.195 µM (active) and the GI50 (SF-268) was 1.97 µM (inactive). For the same compound, the GI50 (SR) was 0.476 µM (active), the GI50 (786-0) was 1.06 µM (active) and the GI50 (SW-620) was 0.259 µM (active). The GI50 (SF-295) was 2.1 µM (inactive), the GI50 (PC-3) was 1.69 µM (inactive) and the GI50 (LOX IMVI) was 0.254 µM (active).

For `CCOC(=O)c1c(C)c2c(n1C)CCc1c[nH]nc1-2`, the GI50 (CAKI-1) was > 100 µM (inactive), the GI50 (HOP-62) was > 100 µM (inactive) and the GI50 (XF498) was > 100 µM (inactive). The GI50 (Malme-3M) was > 100 µM (inactive), the GI50 (HCC 2998) was > 100 µM (inactive) and the GI50 (KM-20L2) was > 100 µM (inactive). The GI50 (M19-MEL) was > 100 µM (inactive), the GI50 (EKVX) was 18 µM (inactive) and the GI50 (MCF7) was > 100 µM (inactive). For the same compound, the GI50 (SK-MEL-28) was > 100 µM (inactive), the GI50 (HT-29) was > 100 µM (inactive) and the GI50 (SN12C) was > 100 µM (inactive). The GI50 (RXF 393) was > 100 µM (inactive), the GI50 (HL-60) was > 100 µM (inactive) and the GI50 (SNB-19) was > 64.6 µM (inactive). For the same compound, the GI50 (NCI-H460) was > 100 µM (inactive), the GI50 (IGROV-1) was > 100 µM (inactive) and the GI50 (OVCAR-5) was 99.1 µM (inactive). The GI50 (UACC-62) was > 100 µM (inactive), the GI50 (RPMI-8226) was > 100 µM (inactive) and the GI50 (A498) was > 100 µM (inactive). The GI50 (NCI-H522) was > 100 µM (inactive), the GI50 (HOP-92) was > 100 µM (inactive) and the GI50 (SK-OV-3) was > 100 µM (inactive). The GI50 (SNB-75) was > 100 µM (inactive), the GI50 (MOLT-4) was > 100 µM (inactive) and the GI50 (K562) was > 100 µM (inactive). The GI50 (DMS-273) was > 100 µM (inactive), the GI50 (SF-539) was > 100 µM (inactive) and the GI50 (NCI-H226) was > 100 µM (inactive). The GI50 (CCRF-CEM) was > 100 µM (inactive), the GI50 (COLO 205) was > 100 µM (inactive) and the GI50 (OVCAR-4) was > 100 µM (inactive). For the same compound, the GI50 (DLD-1) was > 100 µM (inactive), the GI50 (OVCAR-8) was > 100 µM (inactive) and the GI50 (DMS-114) was > 100 µM (inactive). For the same compound, the GI50 (SK-MEL-5) was > 100 µM (inactive), the GI50 (SK-MEL-2) was > 100 µM (inactive) and the GI50 (NCI/ADR-RES) was > 100 µM (inactive). The GI50 (HOP-18) was > 100 µM (inactive), the GI50 (U-251) was > 100 µM (inactive) and the GI50 (UO-31) was > 100 µM (inactive). For the same compound, the GI50 (UACC-257) was > 100 µM (inactive), the GI50 (NCI-H23) was > 100 µM (inactive) and the GI50 (HCT-15) was greater than 100 µM. For the same compound, the GI50 (SNB-78) was > 100 µM (inactive), the GI50 (A549) was > 100 µM (inactive) and the GI50 (OVCAR-3) was > 100 µM (inactive). For the same compound, the GI50 (KM12) was > 100 µM (inactive), the GI50 (HCT-116) was > 100 µM (inactive) and the GI50 (SF-268) was > 100 µM (inactive). For the same compound, the GI50 (SW-620) was > 100 µM (inactive), the GI50 (SF-295) was > 100 µM (inactive) and the GI50 (LOX IMVI) was > 100 µM (inactive).
